Values quoted from earlier work as cited in patent publication US20150024505A1, “APPARATUS FOR EVALUATING CARBONATE SOLUBILITY” (SAUDI ARABIAN OIL COMPANY, priority 2013, published 2015).

Conditions: in water; 10,000 psig and 300° F. required to reach this level

limit of CO2 solubility: about 150 scf/stb of water
SMILES: O=C=O [CO2]
